Reference: PubChem BioAssay (NCI)
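Each compound was tested at five concentrations against cells in 96-well plates for 48 hours. TGI is the concentration that stops growth completely.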

Legend:
Assay in all cases: growth of human tumour cells (NCI), 48 h
786-0 renal = tested on: 786-0 renal
A498 renal = tested on: A498 renal
A549 NSCLC = tested on: A549 NSCLC
ACHN renal = tested on: ACHN renal
BT-549 breast = tested on: BT-549 breast
CAKI-1 renal = tested on: CAKI-1 renal
COLO 205 colon = tested on: COLO 205 colon
DU-145 prostate = tested on: DU-145 prostate
EKVX NSCLC = tested on: EKVX NSCLC
HCC-2998 colon = tested on: HCC-2998 colon
HCT-116 colon = tested on: HCT-116 colon
HCT-15 colon = tested on: HCT-15 colon
HL-60(TB) leukemia = tested on: HL-60(TB) leukemia
HOP-62 NSCLC = tested on: HOP-62 NSCLC
HOP-92 NSCLC = tested on: HOP-92 NSCLC
HS 578T breast = tested on: HS 578T breast
HT29 colon = tested on: HT29 colon
IGROV1 ovarian = tested on: IGROV1 ovarian
K-562 leukemia = tested on: K-562 leukemia
KM12 colon = tested on: KM12 colon
LOX IMVI melanoma = tested on: LOX IMVI melanoma
M14 melanoma = tested on: M14 melanoma
MALME-3M melanoma = tested on: MALME-3M melanoma
MCF7 breast = tested on: MCF7 breast
MDA-MB-231 breast = tested on: MDA-MB-231 breast
MDA-MB-435 = tested on: MDA-MB-435
MDA-N = tested on: MDA-N
NCI-H226 lung = tested on: NCI-H226 lung
NCI-H23 lung = tested on: NCI-H23 lung
NCI-H460 lung = tested on: NCI-H460 lung
NCI-H522 lung = tested on: NCI-H522 lung
NCI/ADR-RES ovarian = tested on: NCI/ADR-RES ovarian
OVCAR-3 ovarian = tested on: OVCAR-3 ovarian
OVCAR-4 ovarian = tested on: OVCAR-4 ovarian
OVCAR-5 ovarian = tested on: OVCAR-5 ovarian
OVCAR-8 ovarian = tested on: OVCAR-8 ovarian
PC-3 prostate = tested on: PC-3 prostate
RPMI-8226 leukemia = tested on: RPMI-8226 leukemia
RXF 393 renal = tested on: RXF 393 renal
SF-268 CNS = tested on: SF-268 CNS
SF-295 CNS = tested on: SF-295 CNS
SF-539 CNS = tested on: SF-539 CNS
SK-MEL-2 melanoma = tested on: SK-MEL-2 melanoma
SK-MEL-28 melanoma = tested on: SK-MEL-28 melanoma
SK-MEL-5 melanoma = tested on: SK-MEL-5 melanoma
SK-OV-3 ovarian = tested on: SK-OV-3 ovarian
SN12C renal = tested on: SN12C renal
SNB-19 CNS = tested on: SNB-19 CNS
SNB-75 CNS = tested on: SNB-75 CNS
SR leukemia = tested on: SR leukemia
SW-620 colon = tested on: SW-620 colon
TK-10 renal = tested on: TK-10 renal
U251 CNS = tested on: U251 CNS
UACC-257 melanoma = tested on: UACC-257 melanoma
UACC-62 melanoma = tested on: UACC-62 melanoma
UO-31 renal = tested on: UO-31 renal
CCRF-CEM leukemia = tested on: CCRF-CEM leukemia
MOLT-4 leukemia = tested on: MOLT-4 leukemia
T-47D breast = tested on: T-47D breast

Q: Which TGI (786-0 renal) does the source give for `Cc1cc(Cl)ccc1OCC(=O)Oc1c(Cl)c(Cl)c(Cl)c(Cl)c1Cl` here?
A: 85.5 µM

Q: What about the TGI (A498 renal) of the same compound?
A: 62.9 µM

Q: And the TGI (A549 NSCLC)?
A: 66.3 µM

Q: What about the TGI (ACHN renal) of the same compound?
A: > 100 µM

Q: And the TGI (BT-549 breast)?
A: > 100 µM

Q: And the TGI (CAKI-1 renal)?
A: > 100 µM

Q: What about the TGI (COLO 205 colon) of the same compound?
A: 78 µM

Q: And the TGI (DU-145 prostate)?
A: 49.2 µM

Q: What about the TGI (EKVX NSCLC) of the same compound?
A: 56.4 µM

Q: What about the TGI (HCC-2998 colon) of the same compound?
A: 48.9 µM

Q: What about the TGI (HCT-116 colon) of the same compound?
A: 45.8 µM

Q: What about the TGI (HCT-15 colon) of the same compound?
A: 71.7 µM

Q: What about the TGI (HL-60(TB) leukemia) of the same compound?
A: > 100 µM

Q: What about the TGI (HOP-62 NSCLC) of the same compound?
A: 47.2 µM

Q: And the TGI (HOP-92 NSCLC)?
A: 40 µM

Q: What about the TGI (HS 578T breast) of the same compound?
A: 66.3 µM

Q: And the TGI (HT29 colon)?
A: 69.1 µM

Q: And the TGI (IGROV1 ovarian)?
A: 79.5 µM

Q: And the TGI (K-562 leukemia)?
A: > 100 µM

Q: And the TGI (KM12 colon)?
A: 52.4 µM

Q: And the TGI (LOX IMVI melanoma)?
A: 51.6 µM

Q: And the TGI (M14 melanoma)?
A: 71.4 µM

Q: And the TGI (MALME-3M melanoma)?
A: 45.3 µM

Q: What about the TGI (MCF7 breast) of the same compound?
A: 96.7 µM

Q: And the TGI (MDA-MB-231 breast)?
A: 38.1 µM

Q: And the TGI (MDA-MB-435)?
A: 68.9 µM

Q: And the TGI (MDA-N)?
A: 74.5 µM

Q: What about the TGI (NCI-H226 lung) of the same compound?
A: 53.8 µM

Q: And the TGI (NCI-H23 lung)?
A: 95.5 µM

Q: What about the TGI (NCI-H460 lung) of the same compound?
A: 51.9 µM

Q: What about the TGI (NCI-H522 lung) of the same compound?
A: 48.4 µM

Q: And the TGI (NCI/ADR-RES ovarian)?
A: 67.6 µM

Q: And the TGI (OVCAR-3 ovarian)?
A: 39 µM

Q: And the TGI (OVCAR-4 ovarian)?
A: 92.1 µM

Q: What about the TGI (OVCAR-5 ovarian) of the same compound?
A: 59.2 µM

Q: What about the TGI (OVCAR-8 ovarian) of the same compound?
A: 66.8 µM

Q: What about the TGI (PC-3 prostate) of the same compound?
A: 80.1 µM

Q: And the TGI (RPMI-8226 leukemia)?
A: 61.7 µM

Q: And the TGI (RXF 393 renal)?
A: 37.3 µM

Q: And the TGI (SF-268 CNS)?
A: > 100 µM

Q: And the TGI (SF-295 CNS)?
A: 67.9 µM

Q: What about the TGI (SF-539 CNS) of the same compound?
A: > 100 µM

Q: What about the TGI (SK-MEL-2 melanoma) of the same compound?
A: 67.7 µM

Q: What about the TGI (SK-MEL-28 melanoma) of the same compound?
A: > 100 µM

Q: What about the TGI (SK-MEL-5 melanoma) of the same compound?
A: 61.9 µM

Q: And the TGI (SK-OV-3 ovarian)?
A: 83.8 µM

Q: What about the TGI (SN12C renal) of the same compound?
A: 62.9 µM

Q: And the TGI (SNB-19 CNS)?
A: 75.5 µM

Q: And the TGI (SNB-75 CNS)?
A: 62.6 µM

Q: What about the TGI (SR leukemia) of the same compound?
A: 60 µM

Q: What about the TGI (SW-620 colon) of the same compound?
A: > 100 µM

Q: What about the TGI (TK-10 renal) of the same compound?
A: 69.1 µM

Q: What about the TGI (U251 CNS) of the same compound?
A: 70.4 µM

Q: And the TGI (UACC-257 melanoma)?
A: 45.3 µM

Q: What about the TGI (UACC-62 melanoma) of the same compound?
A: 46.6 µM

Q: And the TGI (UO-31 renal)?
A: 32 µM

Q: What does the source list for `Cc1ccc2c(c1)C(=O)C1(C2)Cc2ccc(C)cc2C1=O`?
A: TGI (786-0 renal): > 100 µM; TGI (A498 renal): > 100 µM; TGI (A549 NSCLC): > 100 µM; TGI (ACHN renal): > 100 µM; TGI (CAKI-1 renal): > 100 µM; TGI (CCRF-CEM leukemia): > 100 µM; TGI (DU-145 prostate): > 100 µM; TGI (EKVX NSCLC): > 100 µM; TGI (HCC-2998 colon): > 100 µM; TGI (HCT-116 colon): > 100 µM; TGI (HCT-15 colon): > 100 µM; TGI (HL-60(TB) leukemia): > 100 µM; TGI (HOP-62 NSCLC): > 100 µM; TGI (HOP-92 NSCLC): > 100 µM; TGI (HS 578T breast): > 100 µM; TGI (HT29 colon): > 100 µM; TGI (IGROV1 ovarian): > 100 µM; TGI (K-562 leukemia): > 100 µM; TGI (LOX IMVI melanoma): > 100 µM; TGI (M14 melanoma): > 100 µM; TGI (MALME-3M melanoma): > 100 µM; TGI (MCF7 breast): > 100 µM; TGI (MDA-MB-231 breast): > 100 µM; TGI (MDA-MB-435): > 100 µM; TGI (MDA-N): > 100 µM; TGI (MOLT-4 leukemia): > 100 µM; TGI (NCI-H23 lung): > 100 µM; TGI (NCI-H460 lung): > 100 µM; TGI (NCI-H522 lung): > 100 µM; TGI (NCI/ADR-RES ovarian): > 100 µM; TGI (OVCAR-3 ovarian): > 100 µM; TGI (OVCAR-4 ovarian): > 100 µM; TGI (OVCAR-5 ovarian): > 100 µM; TGI (OVCAR-8 ovarian): > 100 µM; TGI (PC-3 prostate): > 100 µM; TGI (RPMI-8226 leukemia): > 100 µM; TGI (RXF 393 renal): > 100 µM; TGI (SF-268 CNS): > 100 µM; TGI (SF-295 CNS): > 100 µM; TGI (SF-539 CNS): > 100 µM; TGI (SK-MEL-2 melanoma): > 100 µM; TGI (SK-MEL-5 melanoma): > 100 µM; TGI (SK-OV-3 ovarian): > 100 µM; TGI (SNB-19 CNS): > 100 µM; TGI (SNB-75 CNS): > 100 µM; TGI (SR leukemia): > 100 µM; TGI (SW-620 colon): > 100 µM; TGI (T-47D breast): > 100 µM; TGI (TK-10 renal): > 100 µM; TGI (U251 CNS): > 100 µM; TGI (UACC-257 melanoma): > 100 µM; TGI (UO-31 renal): > 100 µM
